# In patent US20120122870A1, “Treatment Of Ischemia-Reperfusion Injury” (MUSC FOUNDATION FOR RESEARCH DEVELOPMENT, priority 2009, published 2012):
# “Also recorded” adds a separate entry of the source.
# Experiments:
# TNFα mRNA = TNFα mRNA by quantitative real time PCR after hepatic warm IR; type: in vivo, mice
# Method: ABC294640 prevents hepatic warm IR-induced tumor necrosis factor-α (TNFα) formation and NF-κB activation. Toxic cytokine formation and inflammatory processes play important roles in IR injury, and S1P is well known to promote inflammation. Accordingly, we investigated whether ABC294640 affects the expression of the pro-inflammatory cytokine TNFα after IR. Livers were harvested at 2 h after reperfusion and TNFα mRNA was detected by quantitative real time PCR. TNFα mRNA increased ˜10-fold after IR (FIG. 15, upper). ABC294640 blunted this increase in TNFα mRNA by ˜50%. NF-κB activation is involved in inflammatory cytokine formation and upregulation of adhesion molecules. After IR, phosphorylation of p65 subunit of NF-κB increased markedly, indicating NF-κB activation. This effect was also blunted by ABC294640 (FIG. 15 lower) which is consistent with our previous studies of NF-κB activation. Quantitative real-time PCR (qPCR): Total RNA in liver homogenates was isolated using a QIAGEN RNeasy kit and quantified using a NanoDrop ND-1000 Spectrophotometer. cDNAs of mRNA of interest were generated using the Bio-Rad iScript cDNA Synthesis kit. qPCR was performed on a BioRAD MyiQ single-color real-time PCR detection system. The primers used for each gene were designed using Primer 3 software. […] Data were analyzed with MyiQ software. […]
# hepatic warm IR in mice = experiment: Survival after hepatic warm IR with removal of non-ischemic lobes; type: in vivo; settings: 1 h-ischemia, non-ischemic lobes removed, observed 7 days
# Source text: To evaluate the effects of ABC294640 on survival of mice after IR, the non-ischemic liver lobes were removed after the vascular clamp was opened and mice were observed 7 days for survival. This procedure mimics total LT.
# [1] = test system: hepatic apoptosis after warm IR; experiment: TUNEL apoptosis in liver after hepatic warm IR; type: in vivo, mice; settings: 1 h-ischemia plus 6 h-reperfusion
# Method: ABC294640 prevents hepatic warm IR-induced cell death. SK increased after hepatic IR, therefore, we investigated whether ABC294640 protects against hepatic IR injury. […] Necrotic areas became panlobular after 1 h-ischemia plus 6 h of reperfusion (FIG. 10, middle). Necrotic area, quantified by computerized image analysis of 10 random fields per slide, accounted for 68% of the liver tissue (FIG. 11A). After ABC294640 treatment, necrosis was decreased to 7%, which represents an almost 90% attenuation as compared to the vehicle-treated livers (FIG. 11A). Hepatic apoptosis was evaluated by terminal deoxylnucleotidyl transferase-mediated deoxyuridine triphosphate biotin nick end labeling (TUNEL) (FIG. 11B). TUNEL-positive cells were rare in livers from sham-operated mice (0.13 cells/high power field (hpf)). TUNEL staining increased slightly to 2 cells/hpf after 1 h-ischemia plus 6 h-reperfusion (FIG. 11B). […] The TUNEL assay was performed to assess apoptosis using an In Situ Cell Death Detection Kit (Roche Diagnostics Corp., Indianapolis, Ind.). TUNEL-positive and negative cells were counted in 10 randomly selected fields using a 40× objective lens. Apoptosis was verified morphologically by identifying condensed and fragmented nuclei in 10 randomly selected fields in H+E slides ([…] et al. 1995).
# [2] = test system: severe kidney ischemia-reperfusion in mice; experiment: Ischemia-reperfusion of the kidney (severe model), survival, BUN and creatinine; type: in vivo
# Method: ABC294640 promotes survival in a severe model of kidney damage. To evaluate the protective effects of ABC294640 in a more severe IR model, mice were treated with ABC294640 (50 mg/kg in 0.1 mL by oral gavage) or vehicle (0.1 ml in 0.375% Tween-80 in PBS), and then the right kidney was ligated and removed and the left kidney pedicle was clamped for 45 min before reperfusion. Animals were assessed daily for postoperative health, including scoring for weight loss, activity and appearance. Following severe IR, vehicle-treated mice consistently died or were sacrificed because of severe ill health on post-surgery Day 2 (FIG. 3). In marked contrast, mice that received 50 mg/kg ABC294640 preoperatively all survived the IR insult.
# ABC294640 protects against renal failure in a severe model of kidney damage. Blood was drawn from the severe IR mice at sacrifice, and levels of blood urea nitrogen (BUN) and creatinine were determined as indicators of renal function (FIG. 4). As expected, serum creatinine and BUN levels were highly elevated in the vehicle-treated IR animals (clear bars) compared with sham animals (hatched bars), indicative of post-surgical renal failure.
# Ischemia-reperfusion of the kidney (severe model): The irreversible model was performed in a similar manner to the reversible model described above with the exception that the right kidney pedicle was tied off and the kidney removed and the left kidney was clamped for 45 minutes.
# [3] = test system: mitochondrial depolarization in hepatocytes; experiment: Intravital multiphoton microscopy of mitochondrial depolarization (Rh123/PI) after hepatic IR; type: in vivo, mice; settings: 1 h of ischemia and 2 h of reperfusion
# Source text: MPT onset is an important mechanism leading to cell death due to mitochondrial depolarization. […] There are two main advantages of multiphoton microscopy: 1) Red/infrared light penetrates deeper than visible light into solid tissues allowing visualization of tissue planes as deep as 1 mm into thick specimens. […] Therefore, the viability of thick living specimens is maintained much longer with multiphoton microscopy (Lemasters 2000). These advantages make multiphoton microscopy a powerful tool for studying mitochondrial function in live animals.
# Following 1 h-ischemia and […], rhodamine-123 (Rh123), a cationic fluorophore that is taken up by polarized mitochondria, and propidium iodine (PI) that labels the nuclei of non-viable cells were infused and intravital multiphoton imaging of livers was performed. […]
# Imaging of fluorescent probes Rh123, PI and calcein in vivo was achieved using a Zeiss LSM 510 laser scanning multiphoton microscope system using IR excitation of 800-900 nm from a Coherent Chameleon tunable Ti-Sapphire femtosecond pulsed laser, which excites both red- and green-fluorescing (rhodamine- and fluorescein-like) fluorophores. For calcein fluorescence, excitation of 720-nm was used.
# [4] = severe kidney IR, 48 hr (2 days) post-surgery
# [5] = severe kidney IR, post-surgery Day 10
compound,measurement,setting,value
"O=C(NCc1ccncc1)C12CC3CC(C1)CC(c1ccc(Cl)cc1)(C3)C2 [ABC294640, 3-(4-chlorophenyl)-N-(pyridin-4-ylmethyl)adamantane-1-carboxamide]",TNFα formation after hepatic IR (in words),TNFα mRNA; livers harvested 2 h after IR,blunts TNFα formation
same,blunting of the increase in TNFα mRNA,TNFα mRNA; livers harvested 2 h after reperfusion,~50%
same,survival / acute liver failure after IR (in words),hepatic warm IR in mice,significantly different; also recorded: completely prevented acute liver failure
same,survival after IR,hepatic warm IR in mice; pretreated mice,100%
same,increase of TUNEL-positive cells,[1],partially blocked
same,survival after severe kidney IR,"[2]; 50 mg/kg oral gavage preoperatively, right kidney removed, left pedicle clamped 45 min",all survived
same,survival time after severe kidney IR,"[2]; 50 mg/kg oral gavage, right kidney removed, left kidney clamped 45 minutes",at least 9 days
same,postoperative health at sacrifice,"[2]; severe kidney IR, 50 mg/kg, post-surgery Day 9, 50 mg/kg",in good health; also recorded: appeared robust and were gaining weight
same,BUN vs vehicle,[2]; [4],significantly reduced
same,serum creatinine vs vehicle,[2]; [4],significantly reduced
same,BUN,[2]; [5],returned to normal; also recorded: returning to normal
same,serum creatinine,[2]; [5],returned to normal; also recorded: returning to normal
same,mitochondrial depolarization after hepatic IR (in words),[3],rare and largely prevented and prevents mitochondrial depolarization
same,hepatocytes with mitochondrial depolarization,[3]; Rh123,17%
